From ChEMBL document CHEMBL5338766, “X-ray Crystal Structure-Guided Discovery of Novel Indole Analogues as Colchicine-Binding Site Tubulin Inhibitors with Immune-Potentiating and Antitumor Effects against Melanoma” (J Med Chem, 2023)
The source made the active and inactive calls. No cut-off for these calls is given here.

How the values were obtained:
HepG2 [1] = experiment: Induction of apoptosis in human HepG2 cells assessed as early apoptotic cells at 0.5 nM incubated for 48 hrs by Annexin V-FITC/PI staining based flow cytometric analysis (reference value: 7.01 %); type: functional
HepG2 [2] = experiment: Induction of apoptosis in human HepG2 cells assessed as late apoptotic cells at 1 nM incubated for 48 hrs by Annexin V-FITC/PI staining based flow cytometric analysis (reference value: 4.96 %); type: functional
B16-F10 [3] = experiment: Antiproliferative activity against mouse B16-F10 cells assessed as inhibition of cell proliferation incubated for 48 hrs by MTT assay; type: functional, cell-based; conditions: B16-F10, 48 h
[4] = Acute toxicity in C57 mouse assessed as survival rate at 100 mg/kg, po administered daily for 14 days relative to control; type: organism-based; conditions: in vivo, time 14 day, read-out: Activity
[5] = MRT(0 to t) in Sprague-Dawley rat at 2 mg/kg, iv measured upto 12 hrs by UPLC-MS/ESI analysis; type: ADME, organism-based; conditions: in vivo
A2780S = experiment: Antiproliferative activity against parental human A2780S cells assessed as inhibition of cell proliferation incubated for 48 hrs by MTT assay; type: functional, cell-based
[6] = Tmax in Sprague-Dawley rat at 2 mg/kg, iv measured upto 12 hrs by UPLC-MS/ESI analysis; type: ADME, organism-based; conditions: in vivo
[7] = MRT(0 to infinity) in Sprague-Dawley rat at 2 mg/kg, iv measured upto 12 hrs by UPLC-MS/ESI analysis; type: ADME, organism-based; conditions: in vivo
[8] = Antiproliferative activity against parental human A549S cells assessed as inhibition of cell proliferation incubated for 48 hrs by MTT assay; type: functional, cell-based
[9] = Acute toxicity in C57 mouse assessed as survival rate at 40.96 mg/kg, po administered daily for 14 days relative to control; type: organism-based; conditions: in vivo, time 14 day, read-out: Activity
B16-F10 [10] = experiment: Antitumor activity against mouse B16-F10 cells implanted in C57 mouse assessed as reduction in tumor volume at 2.5 mg/kg, ip administered every day for 14 days in the presence of NP19; type: functional, organism-based; conditions: time 14.0 day
[11] = Toxicity in C57 mouse implanted with mouse B16-F10 cells assessed as pathological changes in heart at 2.5 mg/kg, ip administered every day for 14 days in the presence of NP19 by H&E staining based microscopic analysis; type: organism-based; conditions: in vivo, 336 h, time 14 day
HepG2 [12] = experiment: Antimigratory activity in human HepG2 cells assessed as reduction in recovery area at 0.5 nM incubated for 24 hrs by wound healing assay (reference value: 65.84%); type: functional; parameters: scale not given: the % may be the effect or the level left
HepG2 [13] = experiment: Inhibition of colony formation in human HepG2 cells incubated for 24 hrs by crystal violet staining based analysis; type: functional, cell-based; conditions: dose 0.5-5 nM
HepG2 [14] = experiment: Induction of apoptosis in human HepG2 cells assessed as late apoptotic cells at 5 nM incubated for 48 hrs by Annexin V-FITC/PI staining based flow cytometric analysis (reference value: 4.96 %); type: functional
HepG2 [15] = experiment: Cell cycle arrest in human HepG2 cells assessed as accumulation of cells at G1 phase at 5 nM incubated for 48 hrs by RNaseA/PI staining based flow cytometric analysis (reference value: 56.11%); type: functional
[16] = Toxicity in C57 mouse implanted with mouse B16-F10 cells assessed as body weight loss at 5 mg/kg, ip administered every day for 14 days; type: organism-based; conditions: in vivo, 336 h, time 14 day
[17] = Resistance index, ratio of IC50 for antiproliferative activity against paclitaxel resistant human A2780/Taxol cells to IC50 for antiproliferative activity against parental human A2780S cells; type: functional
Tubulin = Tubulin (Sus scrofa, UniProt P02554+P02550); experiment: (§1) Inhibition of pig brain tubulin polymerization in the presence of GTP by spectrophotometric analysis; type: tissue-based
Tubulin (Sus scrofa) = Tubulin (Sus scrofa) (UniProt P02554+P02550); experiment: as §1; type: tissue-based
Chain of Tubulin (Sus scrofa) (P02550 whole entry, looked up): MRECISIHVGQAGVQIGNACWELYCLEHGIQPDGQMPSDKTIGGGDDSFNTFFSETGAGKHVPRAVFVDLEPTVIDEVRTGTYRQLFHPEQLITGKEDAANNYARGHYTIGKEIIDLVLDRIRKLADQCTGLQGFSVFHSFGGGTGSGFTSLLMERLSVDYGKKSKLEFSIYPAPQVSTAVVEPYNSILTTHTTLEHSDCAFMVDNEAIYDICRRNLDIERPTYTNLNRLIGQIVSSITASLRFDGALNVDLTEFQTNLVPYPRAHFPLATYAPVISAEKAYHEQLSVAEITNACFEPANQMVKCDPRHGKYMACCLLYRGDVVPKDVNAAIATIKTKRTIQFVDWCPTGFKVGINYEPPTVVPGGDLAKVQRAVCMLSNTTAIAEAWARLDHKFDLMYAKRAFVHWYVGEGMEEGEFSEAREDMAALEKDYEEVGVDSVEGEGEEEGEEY
Chain of Tubulin (Sus scrofa) (P02554 whole entry, looked up): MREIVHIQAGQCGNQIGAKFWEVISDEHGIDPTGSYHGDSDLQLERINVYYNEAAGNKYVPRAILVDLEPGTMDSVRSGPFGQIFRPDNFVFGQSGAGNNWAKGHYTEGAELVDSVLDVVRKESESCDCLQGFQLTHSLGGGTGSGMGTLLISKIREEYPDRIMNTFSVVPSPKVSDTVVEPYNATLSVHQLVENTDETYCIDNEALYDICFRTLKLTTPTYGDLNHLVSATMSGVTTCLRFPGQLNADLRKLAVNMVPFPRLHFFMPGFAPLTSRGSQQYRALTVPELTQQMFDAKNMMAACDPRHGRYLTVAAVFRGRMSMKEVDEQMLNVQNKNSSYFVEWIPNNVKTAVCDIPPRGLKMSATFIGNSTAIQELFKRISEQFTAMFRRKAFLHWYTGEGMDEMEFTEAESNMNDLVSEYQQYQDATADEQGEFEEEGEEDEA

HepG2 [18] = experiment: Induction of apoptosis in human HepG2 cells assessed as viable cells at 1 nM incubated for 48 hrs by Annexin V-FITC/PI staining based flow cytometric analysis (reference value: 87.6%); type: functional; conditions: read-out: Activity
HUVEC = experiment: Disruption of vasculature in HUVEC cells assessed as interruption of capillary like networks incubated for 6 hrs by phase contrast microscopic analysis; type: functional, cell-based; conditions: Homo sapiens, dose 0.5-5 nM
[19] = Antiproliferative activity against paclitaxel resistant human A549/TxR cells assessed as inhibition of cell proliferation incubated for 48 hrs by MTT assay; type: functional, cell-based
[20] = Toxicity in C57 mouse implanted with mouse B16-F10 cells assessed as pathological changes in kidney at 2.5 mg/kg, ip administered every day for 14 days in the presence of NP19 by H&E staining based microscopic analysis; type: organism-based; conditions: in vivo, 336 h, time 14 day
[21] = Oral bioavailability in Sprague-Dawley rat at 20 mg/kg measured upto 12 hrs by UPLC-MS/ESI analysis; type: ADME, organism-based; conditions: in vivo
HeLa = experiment: Antiproliferative activity against human HeLa cells assessed as inhibition of cell proliferation incubated for 48 hrs by MTT assay; type: functional, cell-based
HepG2 [22] = experiment: Cell cycle arrest in human HepG2 cells assessed as accumulation of cells at G1 phase at 0.5 nM incubated for 48 hrs by RNaseA/PI staining based flow cytometric analysis (reference value: 56.11%); type: functional
HepG2 [23] = experiment: Induction of apoptosis in human HepG2 cells assessed as late apoptotic cells at 0.5 nM incubated for 48 hrs by Annexin V-FITC/PI staining based flow cytometric analysis (reference value: 4.96 %); type: functional
B16-F10 [24] = experiment: Antitumor activity against mouse B16-F10 cells implanted in C57 mouse assessed as reduction in tumor weight at 2.5 mg/kg, ip administered every day for 14 days in the presence of NP19; type: functional, organism-based; conditions: time 14.0 day
B16-F10 [25] = experiment: Antitumor activity against mouse B16-F10 cells implanted in C57 mouse assessed as tumor growth inhibition at 2.5 mg/kg, ip administered every day for 14 days in the presence of NP19 relative to control; type: functional; conditions: B16-F10, 336 h, time 14 day, read-out: TGI
HepG2 [26] = experiment: Antiproliferative activity against human HepG2 cells assessed as inhibition of cell proliferation incubated for 48 hrs by MTT assay; type: functional, cell-based; conditions: HepG2, 48 h
[27] = Toxicity in C57 mouse implanted with mouse B16-F10 cells assessed as pathological changes in heart at 5 mg/kg, ip administered every day for 14 days by H&E staining based microscopic analysis; type: organism-based; conditions: in vivo, 336 h, time 14 day
HepG2 [28] = experiment: Induction of apoptosis in human HepG2 cells assessed as necrotic cells at 1 nM incubated for 48 hrs by Annexin V-FITC/PI staining based flow cytometric analysis (reference value: 0.443%); type: functional
HepG2 [29] = experiment: Cell cycle arrest in human HepG2 cells assessed as accumulation of cells at S phase at 1 nM incubated for 48 hrs by RNaseA/PI staining based flow cytometric analysis (reference value: 23.81%); type: functional
HepG2 [30] = experiment: Cell cycle arrest in human HepG2 cells assessed as accumulation of cells at […] at 5 nM incubated for 48 hrs by RNaseA/PI staining based flow cytometric analysis (reference value: 23.81%); type: functional
HepG2 [31] = experiment: Antimigratory activity in human HepG2 cells assessed as reduction in recovery area at 1 nM incubated for 24 hrs by wound healing assay (reference value: 65.84%); type: functional; parameters: scale not given: the % may be the effect or the level left
MCF7 = experiment: Antiproliferative activity against human MCF7 cells assessed as inhibition of cell proliferation incubated for 48 hrs by MTT assay; type: functional, cell-based; conditions: MCF7, 48 h

`COc1cc(-c2nccc3[nH]c(-c4cccc5c4ccn5C)nc23)cc(OC)c1OC` showed an Activity (HepG2 [1]) of 8.59%, an Activity (HepG2 [2]) of 8.87% and an IC50 (B16-F10 [3]) of 2 nM. It also gave a survival at 336 h [4] of 0%, an MRT last at 12 h [5] of 1.79 h and an IC50 (A2780S) of 1.6 nM. It also gave a Tmax [6] of 4.98 min, an MRT inf [7] of 1.86 h and an IC50 [8] of 8.5 nM. For the same compound, the survival at 336 h [9] was 100%, the Activity (B16-F10 [10]) was “Active” and the Activity [11] was “Non-Toxic”. For the same compound, the Activity (HepG2 [12]) was 42.2%, the inhibition (HepG2 [13]) was “Dose-Dependent Effect” and the Activity (HepG2 [14]) was 5.74%. For the same compound, the Activity (HepG2 [15]) was 20.19%, the Activity [16] was “Non-Toxic” and the “Ratio IC50” value [17] was 3.2. The IC50 (Tubulin) was 1010 nM, the inhibition (Tubulin (Sus scrofa)) was “Dose-Dependent Effect” and the viability at 0.001 µM (HepG2 [18]) was 59.6%. For the same compound, the Activity (HUVEC) was “Dose-Dependent Effect”, the IC50 [19] was 15.3 nM and the Activity [20] was “Non-Toxic”. It also gave a bioavailability [21] of 11%, an IC50 (HeLa) of 9 nM and an Activity (HepG2 [22]) of 49.61%. For the same compound, the Activity (HepG2 [23]) was 6.41%, the Activity (B16-F10 [24]) was “Active” and the inhibition in vivo at 2.5 mg/kg (B16-F10 [25]) was 77.8%. For the same compound, the IC50 (HepG2 [26]) was 1 nM, the Activity [27] was “Non-Toxic” and the Activity (HepG2 [28]) was 0.189%. The Activity (HepG2 [29]) was 20.35%, the Activity (HepG2 [30]) was 22.8% and the Activity (HepG2 [31]) was 32.2%. For the same compound, the IC50 (MCF7) was 6 nM.
